According to ChEMBL document CHEMBL3272078, “Stereochemical analogs of a muscarinic, ganglionic stimulant. 3. 2,3-Substituted bicyclo(2.2.1)hept-5-enes and -heptanes related to 4-(N-(3-chlorophenyl)carbamoyloxy)-2-butynyltrimethylammonium chloride (McN-A-343)” (J Med Chem, 1976):
Activity calls are given as the source filed them. The calls are words filed in the database; no cut-off is given here.

Assays:
Assay type in all cases: functional, organism-based
Felis catus [1] = test: Ganglion-stimulant activity in cat assessed as pressor response up to 1000 ug/kg, iv
Felis catus [2] = test: Ganglion-stimulant activity in iv dosed cat assessed as depressor response
Felis catus [3] = test: Inhibition of McN-A-343-induced pressor response in iv dosed cat

SMILES | Activity (Felis catus [1]) | Activity (Felis catus [2]) | inhibition (Felis catus [3])
C[N+](C)(C)C[C@H]1[C@H]2CC[C@@H](C2)[C@@H]1COC(=O)Nc1ccc(Cl)cc1 | inactive | inactive | inactive
C[N+](C)(C)CC#CCOC(=O)Nc1cccc(Cl)c1 | Active | – | –
C[N+](C)(C)C[C@H]1[C@H](COC(=O)Nc2ccc(Cl)cc2)[C@H]2C=C[C@H]1C2 | inactive | inactive | inactive
C[N+](C)(C)C[C@H]1[C@@H](COC(=O)Nc2ccc(Cl)cc2)[C@H]2C=C[C@H]1C2 | inactive | inactive | inactive
C[N+](C)(C)C[C@H]1[C@H]2CC[C@@H](C2)[C@H]1COC(=O)Nc1ccc(Cl)cc1 | inactive | inactive | inactive
C[N+](C)(C)C[C@@H]1[C@H]2CC[C@@H](C2)[C@H]1COC(=O)Nc1ccc(Cl)cc1 | inactive | inactive | inactive
C[N+](C)(C)C[C@@H]1[C@H]2CC[C@@H](C2)[C@@H]1COC(=O)Nc1ccc(Cl)cc1 | inactive | inactive | inactive
C[N+](C)(C)C[C@@H]1[C@@H](COC(=O)Nc2ccc(Cl)cc2)[C@H]2C=C[C@H]1C2 | inactive | inactive | inactive
C[N+](C)(C)C[C@@H]1[C@H](COC(=O)Nc2ccc(Cl)cc2)[C@H]2C=C[C@H]1C2 | inactive | inactive | inactive
